Test system: HCV replicon RNA replication in human Huh7 hepatoma cells
Assay: HCV replicon assay (activity levels from either or both of HCV replicon assay 1, Huh7/Clone A RT-qPCR, and assay 2, Huh7 ET luc-ubi-neo/ET)
Format: cell-based, Hepatitis C virus (HCV)
Conditions: Hepatitis C virus, Huh-7, either or both HCV replicon assays: Huh7/Clone A, 48 hours, 72 hours, Luc activity or RT-PCR, read-out: inhibit HCV replication at IC50 levels or estimated IC50 levels
Procedure, shortened: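 Huh7/Clone A subgenomic replicon cells treated 48 h at 37° C. with 7 serial dilutions in triplicate (0.5% DMSO final). Replicon RNA measured by TaqMan RT-qPCR on the neo gene, normalized to RiboGreen total RNA; untreated cells set as 100% for IC50.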

`O=c1c(-c2noc(Cc3ccccc3)n2)cn(Cc2ccc(C(F)(F)F)cc2)c2cc(N3CCNCC3)c(F)cc12` [Compound 70, 3-(5-benzyl-[1,2,4]oxadiazol-3-yl)-6-fluoro-7-piperazin-1-yl-1-(4-trifluoromethyl-benzyl)-1H-quinolin-4-one] was tested. Which IC50 did it give?
The IC50 was less than 500 nM.

With `O=c1c(-c2noc(Cc3ccccc3)n2)cn(Cc2ccc(C(F)(F)F)cc2)c2cc(N3CCCNCC3)c(F)cc12` [Compound 71, 3-(5-benzyl-[1,2,4]oxadiazol-3-yl)-7-[1,4]diazepam-1-yl-6-fluoro-1-(4-trifluoromethyl-benzyl)-1H-quinolin-4-one] as the compound, how does the IC50 read?
The IC50 was less than 500 nM.

For `O=c1c(-c2noc(Cc3ccccc3)n2)cn(Cc2ccc(C(F)(F)F)cc2)c2cc(NCCN3CCOCC3)c(F)cc12` [Compound 72, 3-(5-benzyl-[1,2,4]oxadiazol-3-yl)-6-fluoro-7-(2-morpholin-4-yl-ethylamino)-1-(4-trifluoromethyl-benzyl)-1H-quinolin-4-one], which IC50 is on record?
The IC50 was less than 2000 nM.

How did the IC50 turn out when `O=c1c(-c2noc(Cc3ccccc3)n2)cn(Cc2ccc(C(F)(F)F)cc2)c2cc(NCCOCCO)c(F)cc12` [Compound 73, 3-(5-benzyl-[1,2,4]oxadiazol-3-yl)-6-fluoro-7-[2-(2-hydroxy-ethoxy)-ethylamino]-1-(4-trifluoromethyl-benzyl)-1H-quinolin-4-one] was run?
The IC50 was less than 10000 nM.

How did the IC50 turn out when `CN(C)c1cc2c(cc1F)c(=O)c(-c1noc(Cc3ccccc3)n1)cn2Cc1ccc(C(F)(F)F)cc1` [Compound 74, 3-(5-benzyl-[1,2,4]oxadiazol-3-yl)-7-dimethylamino-6-fluoro-1-(4-trifluoromethyl-benzyl)-1H-quinolin-4-one] was run?
The IC50 was less than 2000 nM.

With `NCCNc1cc2c(cc1F)c(=O)c(-c1noc(Cc3ccccc3)n1)cn2Cc1ccc(C(F)(F)F)cc1` [Compound 75, 7-(2-amino-ethylamino)-3-(5-benzyl-[1,2,4]oxadiazol-3-yl)-6-fluoro-1-(4-trifluoromethyl-benzyl)-1H-quinolin-4-one] as the compound, how does the IC50 read?
Its IC50 is greater than 10000 nM.

Which IC50 does the source give for `O=C(O)Cc1ccc2c(c1)c(=O)c(-c1noc(Cc3ccccc3)n1)cn2Cc1ccc(C(F)(F)F)cc1F` [Compound 76, [3-(5-benzyl-[1,2,4]oxadiazol-3-yl)-1-(2-fluoro-4-trifluoromethyl-benzyl)-4-oxo-1,4-dihydro-quinolin-6-yl]-acetic acid] here?
The IC50 was greater than 10000 nM.

Which IC50 does the source give for `CN1CCN(c2cc3c(cc2F)c(=O)c(-c2noc(C(C)(C)c4ccccc4)n2)cn3Cc2ccc(C(F)(F)F)cc2F)CC1` [Compound 77, 6-fluoro-1-(2-fluoro-4-trifluoromethyl-benzyl)-3-[5-(1-methyl-1-phenyl-ethyl)-[1,2,4]oxadiazol-3-yl]-7-(4-methyl-piperazin-1-yl)-1H-quinolin-4-one] here?
Its IC50 is less than 500 nM.

For `CN1CCN(c2cc3c(cc2F)c(=O)c(-c2noc(C4(c5ccccc5)CC4)n2)cn3Cc2ccc(C(F)(F)F)cc2F)CC1` [Compound 78, 6-fluoro-1-(2-fluoro-4-trifluoromethyl-benzyl)-7-(4-methyl-piperazin-1-yl)-3-[5-(1-phenyl-cyclopropyl)-[1,2,4]oxadiazol-3-yl]-1H-quinolin-4-one], which IC50 is on record?
The IC50 was less than 2000 nM.

For `CN1CCN(c2cc3c(cc2F)c(=O)c(-c2noc(Cc4ccccc4)n2)cn3CCc2ccccc2)CC1` [Compound 79, 3-(5-benzyl-[1,2,4]oxadiazol-3-yl)-6-fluoro-7-(4-methyl-piperazin-1-yl)-1-phenethyl-1H-quinolin-4-one], which IC50 is on record?
Its IC50 is greater than 10000 nM.

How did the IC50 turn out when `CN1CCN(c2cc3c(cc2F)c(=O)c(-c2noc(C(CCCC(N)=O)c4ccccc4)n2)cn3Cc2ccc(Cl)cc2)CC1` (stereo not drawn) [Compound 80, 5-{3-[1-(4-chloro-benzyl)-6-fluoro-7-(4-methyl-piperazin-1-yl)-4-oxo-1,4-dihydro-quinolin-3-yl]-[1,2,4]oxadiazol-5-yl}-5-phenyl-pentanamide] was run?
The IC50 was less than 2000 nM.

For `CN1CCN(c2cc3c(cc2F)c(=O)c(-c2noc(C(CCCC(=O)O)c4ccccc4)n2)cn3Cc2ccc(Cl)cc2)CC1` (stereo not drawn) [Compound 81, 5-{3-[1-(4-chloro-benzyl)-6-fluoro-7-(4-methyl-piperazin-1-yl)-4-oxo-1,4-dihydro-quinolin-3-yl]-[1,2,4]oxadiazol-5-yl}-5-phenyl-pentanoic acid], which IC50 is on record?
Its IC50 is less than 10000 nM.

— patent publication US20070287699A1, “ANTIVIRAL AGENTS” (ViroBay, Inc., priority 2006, published 2007)
